Results reported in US20030129250A1, “Particulate compositions for improving solubility of poorly soluble agents” (Advanced Inhalation Research Inc., priority 2001, published 2003).

Assay: Initial screening for poor solubility in aqueous media
Protocol: Many potential candidates were screened during this process. […] This list was then prioritized based on aqueous solubility, safety, and cost. […] This test was done by mixing […] of PBS and adding 10 mg of bulk drug. […] If the drug fully dissolved at this concentration, it was not considered for the testing.

[1] = PBS pH 7.4, 10 mg bulk drug in 0.3-1.0 L, criterion: no more soluble than 20 mg/L

poor solubility screening in aqueous media [1]	poor solubility screening in aqueous media (pH 7.4)	SMILES
passed the initial screening	–	Cc1c(OCC(F)(F)F)ccnc1C[S+]([O-])c1nc2ccccc2[nH]1 (stereo not drawn) [lansoprazole]
–	passed the initial screening	COc1ccc(Cl)cc1C(=O)NCCc1ccc(S(=O)(=O)NC(=O)NC2CCCCC2)cc1 [glyburide, 1-[[p-[2-(5-chloro-o-anisamido)ethyl]phenyl]-sulfonyl]-3-cyclohexylurea]
passed the initial screening	–	CN1C(C(=O)Nc2ccccn2)=C(O)c2ccccc2S1(=O)=O [piroxicam]
